Laboratory results as given in article PMC9879403, “Oncolytic strategy using new bifunctional HDACs/BRD4 inhibitors against virus-associated lymphomas” (PLOS Pathogens, 2023).
Read-outs that look alike come from different tables or passages of the source.

Experiments:
[1] = tested on: BRD4; assay: BRD4 signaling by Western blot (c-Myc expression); type: cell-based
[2] = tested on: JSC-1; assay: WST-1 cytotoxicity assay, JSC-1 (KSHV+ PEL); type: cell-based; conditions: 72 h
From the text: (§1) Fig 2 Identification of newly synthesized dual inhibitors with anti-PEL activities. (A) The binding mode of (+)-JQ1 with BRD4^BD1 (PDB: 3MXF). BRD4^BD1 is shown as hot pink cartoon with gray surface. Asn140 in BRD4^BD1 is shown as sticks and colored in following pattern: atom C hot pink, atom N dark blue, and atom O yellow. (+)-JQ1 is shown as sticks and colored in following patten: atom C hot pink, atom N dark blue, atom O yellow, atom S golden, and atom Cl green. The solvent exposed region (SEG) of (+)-JQ1 are indicated with white arrow. (B) The binding modes of SAHA and entinostat with HDAC2 (PDB: 3MAX). HDAC2 is shown as blue cartoon with gray surface. Asp181 and His183 in HDAC2 are shown as sticks and colored in following pattern: atom C blue, atom N dark blue, and atom O yellow. The catalytic zinc ion in the active site of HDAC2 is shown as black sphere. SAHA is shown as sticks and colored in following pattern: atom C green, atom N dark blue, and atom O yellow. Entinostat is shown as sticks and colored in following pattern: atom C hot pink, atom N dark blue, and atom O yellow. The SEG of SAHA or entinostat is indicated with white arrow. Hydrogen bonds (H-bonds) are presented by red dash lines. (C) The HDACs/BRD4 dual inhibitors 002-011 were designed by fusing the key pharmacophores of (+)-JQ1 (pink) and HDAC inhibitors (blue), SAHA or entinostat, via various chemical linkers (green). (D) Anti-PEL activities of the new compounds. Five KSHV positive and two KSHV negative lymphoma cell lines were treated with indicated concentrations of these compounds for 72 h. Then the cytotoxicity was determined using the WST-1 assay. (+)-JQ1, SAHA and entinostat were used for the comparisons as single inhibitors. The CC50 for each compound was calculated using GraphPad Prism 5.0 software. Error bars represent S.D. for 3 independent experiments.
(§2) Fig 4 Identification of anti-PEL activities for compound 009 stereoisomers. (A) The chemical structures of anti-HDACs/BRD4 bifunctional molecules 009P1 and 009P2, as well as anti-HDACs or anti-BRD4 mono-functional molecules 009N1, 009N2, 009N3, and 009N4. (B-C) Four KSHV+ PEL cell lines were treated with indicated concentrations of 009P1, 009P2 or 009N1-N4 for 72 h, then the cytotoxicity was determined using the WST-1 assay. (D-I) BCBL-1 cells were treated with these compounds at the respective 2× CC50 for 24 h, then cell cycle (D-F) and apoptosis (G-I) were measured by flow cytometry analysis. Error bars represent S.D. for 3 independent experiments, ** = p<0.01 (vs vehicle control).
(§3) The cell viability following treatment with compounds was assessed by the WST-1 assay (Roche, Indianapolis, Indiana, USA) according to the manufacturer’s protocol as described previously. The absorbance signal was measured using a microplate reader (Biotek Synergy 2). The 50% cytotoxic concentration (CC50) for each compound was calculated from these dose-response curves using the software GraphPad Prism v5.0. Data were normalized as the fold change compared to the DMSO control.

[3] = tested on: BCP-1; assay: WST-1 cytotoxicity assay, BCP-1 (KSHV+ PEL); type: cell-based; conditions: BCP-1, 72 h
From the text: as §1, §2, §3

[4] = tested on: BC-1; assay: WST-1 cytotoxicity assay, BC-1 (KSHV+ PEL); type: cell-based; conditions: Homo sapiens, BC1, 72 h
From the text: as §1, §2, §3

[5] = Pharmacokinetics in plasma of mice (LC-MS/MS); conditions: male, NOD/SCID, mouse, in vivo
Protocol: The i.p. and p.o. dose were formulated with DMSO/PEG300/Tween80/saline (5/30/10/55). Samples were obtained at 0.25, 0.5, 1, 2, 4, and 8 hours post dosing via tail snipping, transferred into plastic microcentrifuge tubes containing 4 μL of K2-EDTA (0.5 M) as anti-coagulant and placed on wet ice until centrifugation. Harvested blood samples were centrifuged shortly after collection at 4,000 g 4°C for 10 minutes. After centrifugation, the amount of compounds in the plasma was determined using HPLC-coupled tandem mass spectrometry (LC-MS/MS). Values are calculated from arithmetic mean plasma concentrations (n = 3 mice per condition). AUClast and t1/2 were determined using GraphPad Prism v5.0. The bioavailability F (%) = AUClast for p.o. / AUClast for i.p. × 100 [50].

[6] = tested on: HUVEC; assay: WST-1 cytotoxicity on primary cells HUVEC; type: cell-based, human
Protocol: as §3
Supplementary file ppat.1011089.s006.tif: S5 Fig Cytotoxicity of tested compounds on HUVEC. The primary cells HUVEC were treated with indicated concentrations of compounds for 72 h, then cell viability was assessed using the WST-1 assay. The CC50 for each compound was calculated from the dose-response curves using Graphpad Prism 5.0 software. Data was normalized as the fold change compared to the DMSO control. (TIF) Click here for additional data file.

[7] = tested on: BCBL-1 cells; assay: Cell death regulatory proteins by Western blot; type: cell-based; conditions: 50 nM, 48 h
[8] = tested on: BCBL-1 cells; assay: RNA-Sequencing of compound-treated vs vehicle-treated cells; type: cell-based, human; conditions: for Ratio, ARC / Ratio, ARRDC3 / Ratio, ATF3 / Ratio, CCDC169-SOHLH2 / Ratio, CD28 / Ratio, CD44 / Ratio, CFAP58 / Ratio, CHAC1 / Ratio, CSF1R / Ratio, DDIT3 / Ratio, DDIT4 / Ratio, FOS / Ratio, IFNG / Ratio, IRF7 / Ratio, LGALS9B / Ratio, MCM5 / Ratio, PRKCB / Ratio, RP11-707M3.3 / Ratio, SOCS3 / Ratio, SPINT1: gene expression, treated vs vehicle BCBL-1 cells
Protocol: RNA-Sequencing (RNA-Seq) of triplicate samples was performed by BGI Americas Corporation using their unique DNBSEQ sequencing technology. The completed RNA-Sequencing data was submitted to NCBI Sequence Read Archive (SRA# # PRJNA813422). Raw sequencing reads were analyzed using the RSEM software (version 1.3.0; human GRCh38 genome sequence and annotation) and gene expression was quantified as previously described. The EBSeq software was utilized to call differentially expressed genes that were statistically significant using a false discovery rate (FDR) less than 0.05. Differentially expressed genes between compounds- and vehicle-treated PEL cells were used as input for the GO enrichment analyses.

[9] = BCBL-1 cells, 48 h, Western blot
[10] = read-out: KSHV-infected lymphomas CC50, JSC-1
[11] = read-out: KSHV-infected lymphomas CC50, BCP-1
[12] = read-out: KSHV-infected lymphomas CC50, BC-1
[13] = ip, mice, single i.p. 50 mg/kg, plasma, read-out: AUClast
[14] = ip, mice, single i.p. 50 mg/kg, plasma, read-out: Cmax
[15] = ip, mice, single i.p. 50 mg/kg, plasma, read-out: Tmax
[16] = ip, mice, single i.p. 50 mg/kg, plasma, read-out: t1/2 (converted)

Q: For `Cc1sc2c(c1C)C(c1ccc(Cl)cc1)=N[C@@H](CC(=O)O[C@H](C)c1ccc(C(=O)Nc3ccccc3N)cc1)c1nnc(C)n1-2` [009P1, (R)-1-(4-((2-aminophenyl)carbamoyl)phenyl)ethyl 2-((S)-4-(4-chlorophenyl)-2,3,9-trimethyl-6H-thieno[3,2-f][1,2,4]triazolo[4,3-a][1,4]diazepin-6-yl)acetate], which c-Myc expression [1, 9] is on record?
A: decreased

Q: What about the CC50 ([2]; read-out: CC50, JSC-1) of the same molecule?
A: 300 nM

Q: What about the CC50 ([3]; read-out: CC50, BCP-1) of the same molecule?
A: 120 nM

Q: And the CC50 ([4]; read-out: CC50, BC-1)?
A: 42 nM

Q: What about the bioavailability ([5]; 50 mg/kg) of the same molecule?
A: 24.5%

Q: And the AUC(0-t) ([5]; ip, 50 mg/kg)?
A: 159000 ng·h/mL

Q: And the Cmax ([5]; ip, 50 mg/kg)?
A: 74600 ng/mL

Q: And the Tmax ([5]; ip, 50 mg/kg)?
A: 1 h

Q: And the half-life ([5]; ip, 50 mg/kg)?
A: 1.66 h

Q: What about the AUC(0-t) ([5]; po, 50 mg/kg) of the same molecule?
A: 39000 ng·h/mL

Q: And the Cmax ([5]; po, 50 mg/kg)?
A: 11500 ng/mL

Q: What about the Tmax ([5]; po, 50 mg/kg) of the same molecule?
A: 0.5 h

Q: What about the half-life ([5]; po, 50 mg/kg) of the same molecule?
A: 1.12 h

Q: And the “Cytotoxicity in primary cells HUVEC” value [6]?
A: much less cytotoxicity

Q: And the “Expression of p-RB, cleaved-caspase 3 and cleaved-PARP” value [7]?
A: strongly affected

Q: And the “Genes differentially expressed between 009P1- and 009P2-treated PEL cells” value ([8]; BCBL-1, ≥ 2 fold-change and FDR < 0.05)?
A: 473 genes

Q: What about the “Ratio, ARC” value [8] of the same molecule?
A: 18.81

Q: What about the “Ratio, ARRDC3” value [8] of the same molecule?
A: 30.72

Q: And the “Ratio, ATF3” value [8]?
A: 12.86

Q: What about the “Ratio, CCDC169-SOHLH2” value [8] of the same molecule?
A: 0.3358

Q: And the “Ratio, CD28” value [8]?
A: 0.4509

Q: What about the “Ratio, CD44” value [8] of the same molecule?
A: 0.1954

Q: What about the “Ratio, CFAP58” value [8] of the same molecule?
A: 0.1358

Q: And the “Ratio, CHAC1” value [8]?
A: 8.345

Q: What about the “Ratio, CSF1R” value [8] of the same molecule?
A: 24.82

Q: And the “Ratio, DDIT3” value [8]?
A: 12.33

Q: What about the “Ratio, DDIT4” value [8] of the same molecule?
A: 21.76

Q: And the “Ratio, FOS” value [8]?
A: 46.18

Q: What about the “Ratio, IFNG” value [8] of the same molecule?
A: 0.1678

Q: What about the “Ratio, IRF7” value [8] of the same molecule?
A: 23.79

Q: And the “Ratio, LGALS9B” value [8]?
A: 0.03812

Q: What about the “Ratio, MCM5” value [8] of the same molecule?
A: 0.2002

Q: What about the “Ratio, PRKCB” value [8] of the same molecule?
A: 0.02626

Q: And the “Ratio, RP11-707M3.3” value [8]?
A: 0.3443

Q: What about the “Ratio, SOCS3” value [8] of the same molecule?
A: 41.42

Q: What about the “Ratio, SPINT1” value [8] of the same molecule?
A: 0.1504

Q: What does the source list for `Cc1sc2c(c1C)C(c1ccc(Cl)cc1)=N[C@@H](CC(=O)OC(C)(C)C)c1nnc(C)n1-2` [(+)-JQ1, reference compound]?
A: c-Myc expression [1]: drastically downregulated; CC50 [2, 10]: 41 nM; CC50 [3, 11]: 59 nM; CC50 [4, 12]: 44 nM; AUC(0-t) [5, 13]: 78000 ng·h/mL; Cmax [5, 14]: 28700 ng/mL; Tmax [5, 15]: 1 h; half-life [5, 16]: 2.27 h; Cytotoxicity in primary cells HUVEC ([6]; 72 h, WST-1): moderate cytotoxicity; Expression of p-RB, cleaved-caspase 3 and cleaved-PARP [7]: almost unchanged; Ratio, ARC [8]: 21.83; Ratio, ARRDC3 [8]: 27.58; Ratio, ATF3 [8]: 28.74; Ratio, CCDC169-SOHLH2 [8]: 0.1299; Ratio, CD28 [8]: 0.05544; Ratio, CD44 [8]: 0.09101; Ratio, CFAP58 [8]: 0.2089; Ratio, CHAC1 [8]: 55.65; Ratio, CSF1R [8]: 62.41; Ratio, DDIT3 [8]: 20.73; Ratio, DDIT4 [8]: 28.37; Ratio, FOS [8]: 78.64; Ratio, IFNG [8]: 0.1251; Ratio, IRF7 [8]: 52.67; Ratio, LGALS9B [8]: 0.04587; Ratio, MCM5 [8]: 0.1471; Ratio, PRKCB [8]: 0.06358; Ratio, RP11-707M3.3 [8]: 0.2212; Ratio, SOCS3 [8]: 37.19; Ratio, SPINT1 [8]: 0.1876

Q: With `O=C(CCCCCCC(=O)Nc1ccccc1)NO` [SAHA, suberoylanilide hydroxamic acid, reference compound] as the molecule, how does the c-Myc expression [1, 9] read?
A: subtle effect

Q: And the CC50 [2, 10]?
A: 680 nM

Q: What about the CC50 [3, 11] of the same molecule?
A: 1420 nM

Q: And the CC50 [4, 12]?
A: 1380 nM

Q: What about the AUC(0-t) [5, 13] of the same molecule?
A: 12000 ng·h/mL

Q: And the Cmax [5, 14]?
A: 16600 ng/mL

Q: What about the Tmax [5, 15] of the same molecule?
A: 0.25 h

Q: What about the half-life [5, 16] of the same molecule?
A: 0.72 h

Q: And the “Cytotoxicity in primary cells HUVEC” value ([6]; 72 h, WST-1)?
A: moderate cytotoxicity

Q: And the “Expression of p-RB, cleaved-caspase 3 and cleaved-PARP” value [7]?
A: almost unchanged

Q: And the “Ratio, ARC” value [8]?
A: 10.26

Q: What about the “Ratio, ARRDC3” value [8] of the same molecule?
A: 7.834

Q: And the “Ratio, ATF3” value [8]?
A: 33.64

Q: What about the “Ratio, CCDC169-SOHLH2” value [8] of the same molecule?
A: 0.1697

Q: And the “Ratio, CD28” value [8]?
A: 0.3793

Q: What about the “Ratio, CD44” value [8] of the same molecule?
A: 0.293

Q: And the “Ratio, CFAP58” value [8]?
A: 0.411

Q: What about the “Ratio, CHAC1” value [8] of the same molecule?
A: 53.96

Q: And the “Ratio, CSF1R” value [8]?
A: 3.864

Q: What about the “Ratio, DDIT3” value [8] of the same molecule?
A: 16.62

Q: What about the “Ratio, DDIT4” value [8] of the same molecule?
A: 5.426

Q: What about the “Ratio, FOS” value [8] of the same molecule?
A: 21.04

Q: What about the “Ratio, IFNG” value [8] of the same molecule?
A: 0.312

Q: What about the “Ratio, IRF7” value [8] of the same molecule?
A: 5.624

Q: What about the “Ratio, LGALS9B” value [8] of the same molecule?
A: 0.3605

Q: What about the “Ratio, MCM5” value [8] of the same molecule?
A: 0.4255

Q: What about the “Ratio, PRKCB” value [8] of the same molecule?
A: 0.3013

Q: And the “Ratio, RP11-707M3.3” value [8]?
A: 0.2461

Q: And the “Ratio, SOCS3” value [8]?
A: 9.781
